One series can be described thus: in vitro. The settings on record: human, Caco-2, pH 7.4.
Series [1] concerns IFNα-induced STAT phosphorylation (pSTAT5). In words: IFNα-induced STAT phosphorylation in human whole blood. Type of series: cell-based. The settings on record: 1 h compound, 1000 U/mL IFNα A/D 15 min, CD3 positive population, read-out: Human Whole blood IFNa pSTAT5 IC50. The procedure: IFNα-Induced STAT Phosphorylation in Human Whole Blood
After an hour long incubation with compound, human whole blood (drawn with ACD-A as anticoagulant) was stimulated with 1000 U/mL recombinant human IFNα A/D (R&D Systems 11200-2) for 15 min. The stimulation was stopped by adding Fix/Lyse buffer (BD 558049). Cells were stained with a CD3 FITC antibody (BD 555916), washed, and permeabilized on ice using Perm III buffer (BD 558050). Cells were then stained with an Alexa-Fluor 647 pSTAT5 (pY694) antibody (BD 612599) for 60 min prior to analysis on the iQue Plus. The amount of pSTAT5 expression was quantitated by median fluorescence intensity after gating on the CD3 positive population.

Experimental findings from patent US11866414B2, “Substituted heterocyclic compounds” (BRISTOL-MYERS SQUIBB COMPANY, priority 2021, dated 2024) are described below.

For `[2H]C([2H])([2H])NC(=O)c1nnc(NC(=O)C2CC2)cc1Nc1c(F)ccc(-c2cnn(C)n2)c1OC` [Example 22, 6-(cyclopropanecarboxamido)-4-((6-fluoro-2-methoxy-3-(2-methyl-2H-1,2,3-triazol-4-yl)phenyl)amino)-N-(methyl-d3)pyridazine-3-carboxamide], in “in vitro”, the Papp A→B at 2 h, 3 μM amounted to 51.1 ×10⁻⁶ cm/s and the efflux ratio at 2 h, 3 μM is 0.7. For the same compound, in series [1], the IC50 is 330 nM.
The like results for `[2H]C([2H])([2H])NC(=O)c1nnc(NC(=O)[C@@H]2C[C@H]2CC)cc1Nc1nccc(-c2cnn(C)n2)c1OC` [Example 43, 6-((1R,2R)-2-ethylcyclopropane-1-carboxamido)-4-((3-methoxy-4-(2-methyl-2H-1,2,3-triazol-4-yl)pyridin-2-yl)amino)-N-(methyl-d3)pyridazine-3-carboxamide] were, in that order, 13.4 ×10⁻⁶ cm/s, 0.6 and 280 nM.
As for `[2H]C([2H])([2H])NC(=O)c1nnc(NC(=O)C2CC2)cc1Nc1cc(C(=O)OC(C)C)cc(-c2cnn(C)n2)c1OC` [Example 34, isopropyl 3-((6-(cyclopropanecarboxamido)-3-((methyl-d3)carbamoyl)pyridazin-4-yl)amino)-4-methoxy-5-(2-methyl-2H-1,2,3-triazol-4-yl)benzoate], in “in vitro”, the Papp A→B at 2 h, 3 μM turned out to be 20.9 ×10⁻⁶ cm/s and the efflux ratio at 2 h, 3 μM was found to be 0.3. The half-inhibitory concentration (IC50) in series [1] turned out to be 160 nM.
The like results for `[2H]C([2H])([2H])NC(=O)c1nnc(Nc2cc(C)nc(C)n2)cc1Nc1nccc(-c2cnn(C)n2)c1OC` [Example 64, 6-[(2,6-dimethylpyrimidin-4-yl)amino]-4-{[3-methoxy-4-(2-methyl-2H-1,2,3-triazol-4-yl)pyridin-2-yl]amino}-N—(^2H3)methylpyridazine-3-carboxamide] were, in that order, 1.7 ×10⁻⁶ cm/s, under 0.9 and 250 nM.
In the case of `[2H]C([2H])([2H])NC(=O)c1nnc(NC(=O)OCC)cc1Nc1cccc(-c2cnn(C)n2)c1OC` [Example 28, ethyl (5-((2-methoxy-3-(2-methyl-2H-1,2,3-triazol-4-yl)phenyl)amino)-6-((methyl-d3)carbamoyl)pyridazin-3-yl)carbamate], in the series “in vitro”, the Papp A→B at 2 h, 3 μM worked out at 28 ×10⁻⁶ cm/s and the efflux ratio at 2 h, 3 μM was found to be 0.5. Also, the IC50 in series [1] came out at 370 nM.
The like results for `[2H]C([2H])([2H])NC(=O)c1nnc(Nc2cc(C)n(C)n2)cc1Nc1nccc(-c2cnn(C)n2)c1OC` [Example 68, 6-[(1,5-dimethyl-1H-pyrazol-3-yl)amino]-4-{[3-methoxy-4-(2-methyl-2H-1,2,3-triazol-4-yl)pyridin-2-yl]amino}-N—(^2H3)methylpyridazine-3-carboxamide] were, in that order, 59.4 ×10⁻⁶ cm/s, 0.4 and 290 nM.
In the same order, the values of `[2H]C([2H])([2H])NC(=O)c1nnc(NC(=O)[C@H]2C[C@H]2C)cc1Nc1cccc(-c2cnn(C)n2)c1OC` [Example 30, 4-((2-methoxy-3-(2-methyl-2H-1,2,3-triazol-4-yl)phenyl)amino)-N-(methyl-d3)-6-((1S,2R)-2-methylcyclopropane-1-carboxamido)-pyridazine-3-carboxamide] are 29.9 ×10⁻⁶ cm/s, 0.7 and 60 nM.
For `[2H]C([2H])([2H])NC(=O)c1nnc(Nc2cc(C)n(C)n2)cc1Nc1cccc(-c2cnn(C)n2)c1OC` [Example 6, 6-[(1,5-dimethyl-1H-pyrazol-3-yl)amino]-4-{[2-methoxy-3-(2-methyl-2H-1,2,3-triazol-4-yl)phenyl]amino}-N—(^2H3)methylpyridazine-3-carboxamide], in the series “in vitro”, the Papp A→B at 2 h, 3 μM amounted to 7.4 ×10⁻⁶ cm/s and the efflux ratio at 2 h, 3 μM is 0.9. In series [1], the IC50 came to 20 nM.
The like results for `[2H]C([2H])([2H])NC(=O)c1nnc(NC(=O)C2CC2(F)F)cc1Nc1cccc(-c2cnn(C)n2)c1OC` (stereo not drawn) [Example 31, 6-(2,2-difluorocyclopropane-1-carboxamido)-4-((2-methoxy-3-(2-methyl-2H-1,2,3-triazol-4-yl)phenyl)amino)-N-(methyl-d3)pyridazine-3-carboxamide] were, in that order, 31.3 ×10⁻⁶ cm/s, 0.8 and 110 nM.
The like results for `[2H]C([2H])([2H])NC(=O)c1nnc(NC(=O)C2CC2)cc1Nc1nccc(-c2cnn(C([2H])([2H])[2H])n2)c1OC` [Example 57, 6-(cyclopropane-carboxamido)-4-((3-methoxy-4-(2-(methyl-d3)-2H-1,2,3-triazol-4-yl)pyridin-2-yl)amino)-N-(methyl-d3)pyridazine-3-carboxamide] were, in that order, 81.6 ×10⁻⁶ cm/s, 0.4 and 10 nM.
In the same order, the values of `[2H]C([2H])([2H])NC(=O)c1nnc(NC(=O)[C@H]2C[C@H]2C)cc1Nc1nccc(-c2cnn(C)n2)c1OC` [Example 40, 4-((3-methoxy-4-(2-methyl-2H-1,2,3-triazol-4-yl)pyridin-2-yl)amino)-N-(methyl-d3)-6-((1S,2R)-2-methylcyclopropane-1-carboxamido)pyridazine-3-carboxamide] are 25.9 ×10⁻⁶ cm/s, 0.8 and 40 nM.
Consider `[2H]C([2H])([2H])NC(=O)c1nnc(NC(=O)CCCF)cc1Nc1nccc(-c2cnn(C)n2)c1OC` [Example 45, 6-(4-fluorobutanamido)-4-{[3-methoxy-4-(2-methyl-2H-1,2,3-triazol-4-yl)pyridin-2-yl]amino}-N—(^2H3)methylpyridazine-3-carboxamide], for which, in “in vitro”, the Papp A→B at 2 h, 3 μM came out at 5.8 ×10⁻⁶ cm/s and the efflux ratio at 2 h, 3 μM was found to be 0.5. In addition, the IC50 in series [1] is 60 nM.
In the same order, the values of `[2H]C([2H])([2H])NC(=O)c1nnc(Nc2cc(C(C)(C)O)ccn2)cc1Nc1nccc(-c2cnn(C)n2)c1OC` [Example 67, 6-{[4-(2-hydroxypropan-2-yl)pyridin-2-yl]amino}-4-{[3-methoxy-4-(2-methyl-2H-1,2,3-triazol-4-yl)pyridin-2-yl]amino}-N—(^2H3)methylpyridazine-3-carboxamide] are 28.6 ×10⁻⁶ cm/s, 0.9 and 86 nM.
In the case of `[2H]C([2H])([2H])NC(=O)c1nnc(NC(=O)[C@H]2C[C@@H]2C)cc1Nc1nccc(-c2cnn(C)n2)c1OC` [Example 42, 4-((3-methoxy-4-(2-methyl-2H-1,2,3-triazol-4-yl)pyridin-2-yl)amino)-N-(methyl-d3)-6-((1S,2S)-2-methylcyclopropane-1-carboxamido)pyridazine-3-carboxamide], in “in vitro”, the Papp A→B at 2 h, 3 μM came to 28.7 ×10⁻⁶ cm/s and the efflux ratio at 2 h, 3 μM was 0.4. The concentration for half-maximal inhibition (IC50) in series [1] amounted to 50 nM.
The like results for `[2H]C([2H])([2H])NC(=O)c1nnc(NC(=O)C2CC2)cc1Nc1cc(COC)cc(-c2cnn(C)n2)c1OC` [Example 35, 6-(Cyclopropanecarboxamido)-4-((2-methoxy-5-(methoxymethyl)-3-(2-methyl-2H-1,2,3-triazol-4-yl)phenyl)amino)-N-(methyl-d3)pyridazine-3-carboxamide] were, in that order, 42.9 ×10⁻⁶ cm/s, 0.6 and 20 nM.
Turning to `[2H]C([2H])([2H])NC(=O)c1nnc(NC(=O)C2CC2(C)C)cc1Nc1nccc(-c2cnn(C)n2)c1OC` (stereo not drawn) [Example 38, 6-(2,2-dimethylcyclopropane-1-carboxamido)-4-((3-methoxy-4-(2-methyl-2H-1,2,3-triazol-4-yl)pyridin-2-yl)amino)-N-(methyl-d3)pyridazine-3-carboxamide], in the series “in vitro”, the Papp A→B at 2 h, 3 μM came to 33 ×10⁻⁶ cm/s and the efflux ratio at 2 h, 3 μM came out at 0.4. In addition, the IC50 in series [1] stood at 440 nM.
The like results for `[2H]C([2H])([2H])NC(=O)c1nnc(NC(=O)N(C)C)cc1Nc1nccc(-c2cnn(C)n2)c1OC` [Example 39, 6-(3,3-dimethylureido)-4-((3-methoxy-4-(2-methyl-2H-1,2,3-triazol-4-yl)pyridin-2-yl)amino)-N-(methyl-d3)pyridazine-3-carboxamide] were, in that order, 18.8 ×10⁻⁶ cm/s, 0.4 and 420 nM.
In the same order, the values of `[2H]C([2H])([2H])NC(=O)c1nnc(Nc2ccc(N3CCOCC3)cn2)cc1Nc1nccc(-c2cnn(C)n2)c1OC` [Example 66, 4-{[3-methoxy-4-(2-methyl-2H-1,2,3-triazol-4-yl)pyridin-2-yl]amino}-N—(^2H3)methyl-6-{[5-(morpholin-4-yl)pyridin-2-yl]amino}pyridazine-3-carboxamide] are 22.2 ×10⁻⁶ cm/s, 0.3 and 0.2 nM.
With `[2H]C([2H])([2H])NC(=O)c1nnc(NC(=O)[C@@H]2C[C@@H]2F)cc1Nc1nccc(-c2cnn(C3CC3)n2)c1OC` [Example 44, 4-((4-(2-cyclopropyl-2H-1,2,3-triazol-4-yl)-3-methoxypyridin-2-yl)amino)-6-((1S,2S)-2-fluorocyclopropane-1-carboxamido)-N-(methyl-d3)pyridazine-3-carboxamide], in “in vitro”, the Papp A→B at 2 h, 3 μM came to 24.6 ×10⁻⁶ cm/s and the efflux ratio at 2 h, 3 μM came to 0.5. Moreover, in series [1], the IC50 is 40 nM.
In the same order, the values of `[2H]C([2H])([2H])NC(=O)c1nnc(NC(=O)C2CC2)cc1Nc1cccc(-c2nn(C)nc2C)c1OC` [Example 23, 6-(cyclopropane-carboxamido)-4-((3-(2,5-dimethyl-2H-1,2,3-triazol-4-yl)-2-methoxyphenyl)amino)-N-(methyl-d3)pyridazine-3-carboxamide] are 29.5 ×10⁻⁶ cm/s, 1.2 and 180 nM.

A word on the Papp A→B: it is how fast a substance crosses the layer from the apical side. In general, efflux ratio refers to the permeability from basolateral to apical divided by that in the opposite direction, in the common usage. As usually defined, the IC50 is the midpoint of a concentration-inhibition curve.
